In the test the test system is RA FLS. The test can be described thus: RA FLS scratch assay. The test is classed as cell-based, human. The following applies: Syntenin-1 1000 ng/ml 24 h; SDC1-Ab 1:100, mTORi 1 μM, HIF1αi 2 μM; FIGS. 16J-K. How it is done: RA STs were fluorescently stained to authenticate the colocalization of Mitofusin (MFN2) (FIGS. 16A-B) and DRP1 (FIGS. 16C-D) expression on Vimentin^+ FLS in the presence or absence of DAPI, (n=3, original magnification×60 or 500). RA FLS were treated with Syntenin-1 (1000 ng/ml) for 0-60 min to detect Mitofusin-2 and DRP1 expression (FIG. 16E, n=3) and actin served as equal loading, (n=3). RA FLS were treated with Syntenin-1 (1000 ng/ml) in the presence or absence of HIF1αi (2 μM) for 6 h to determine transcription of IL-1β (FIG. 16F, n=6), IL-6 (FIG. 16G, n=5), IL-8 (FIG. 16H, n=5) and CCL2 (I, n=6) by real-time RT-PCR. […] The number of cells in the scratch area was counted and compared to the untreated control, (K, n=4). RA FLS were treated with PBS or Syntenin-1 (1000 ng/ml) in the presence or absence of SDC-1 Ab (SDCab: 1:100), IL-5R Ab (IL5Ra; 2 μg/ml), or PDZli (PDZ1; 10 μM), and/or HIF1αi (2 μM) or mTORi ([…]) for 6 h before quantifying transcription levels of VEGF (FIG. 16L, n=5) and Notch1, FGF2, CXCL1, CXCL5 (FIG. 16K or 16M, n=8 or 7). Data are presented as mean±SEM; significant differences were determined by the Mann-Whitney test, 2way ANOVA, or one-way ANOVA. *p<0.05, **p<0.01, ***p<0.001, ****p<0.0001.
RA FLS and HUVEC scratch assay. […] The number of cells in the scratch area was counted and compared to the untreated control.

Regarding `CO[C@H]1C[C@@H]2CC[C@@H](C)[C@@](O)(O2)C(=O)C(=O)N2CCCC[C@H]2C(=O)O[C@H]([C@H](C)C[C@@H]2CC[C@@H](OCCO)[C@H](OC)C2)CC(=O)[C@H](C)/C=C(\C)[C@@H](O)[C@@H](OC)C(=O)[C@H](C)C[C@H](C)/C=C/C=C/C=C/1C` [mTORi, Everolimus], the “Syntenin-1-driven RA FLS migration” value is recorded as “intercepted”.

Values taken from patent US20260184807A1, “Methods for Treating Rheumatoid Arthritis Using a Syndecan-1 Inhibitor or Syntenin-1 Inhibitor” (The United States Government as represented by the …, priority 2022, published 2026).
